IC50 data for 19 compounds are collected here from patent publication US7652143B2, “Cyclic ureas used as inhibitors of metalloproteases” (sanofi-aventis Deutschland GmbH, priority 2004, dated 2010).

Structures can show the parent of a compound that is named as a salt. Where two headings read alike, the source gives them in different places.

Assay [1] concerns the target T1, human ADAMTS-4 protease (Homo sapiens, UniProt O75173).
T1 sequence (O75173 213-837): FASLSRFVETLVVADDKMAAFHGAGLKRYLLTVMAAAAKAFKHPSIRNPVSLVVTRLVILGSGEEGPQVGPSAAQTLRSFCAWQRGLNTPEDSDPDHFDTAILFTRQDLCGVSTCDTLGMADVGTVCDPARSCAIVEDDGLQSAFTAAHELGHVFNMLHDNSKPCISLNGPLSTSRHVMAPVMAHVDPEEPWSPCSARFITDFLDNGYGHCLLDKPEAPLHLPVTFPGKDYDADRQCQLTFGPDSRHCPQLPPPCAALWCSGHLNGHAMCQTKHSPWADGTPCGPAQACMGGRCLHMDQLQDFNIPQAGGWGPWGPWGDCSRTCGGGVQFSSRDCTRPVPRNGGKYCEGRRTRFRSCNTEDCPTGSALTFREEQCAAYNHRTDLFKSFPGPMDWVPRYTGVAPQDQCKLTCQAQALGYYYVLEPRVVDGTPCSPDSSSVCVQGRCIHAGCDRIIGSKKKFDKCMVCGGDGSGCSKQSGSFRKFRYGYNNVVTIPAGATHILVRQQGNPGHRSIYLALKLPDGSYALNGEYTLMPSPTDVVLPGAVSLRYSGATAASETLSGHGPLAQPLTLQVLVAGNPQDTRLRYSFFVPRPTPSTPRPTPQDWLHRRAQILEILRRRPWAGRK
Nature of the assay: Inhibition of ADAMTS-4 activity (rAgg1mut substrate, neo-epitope ELISA). Format: biochemical. To be noted: recombinant human ADAMTS-4, rAgg1mut substrate. (In general: ELISA stands for enzyme-linked immunosorbent assay.)

Assay [2] deals with T2, MMP13 (Homo sapiens, UniProt P45452).
T2 construct: purchased Biotrend, Roche, Boehringer Mannheim
Nature of the assay: Inhibition of MMP 13 activity (fluorimetric peptide substrate cleavage). Format: biochemical. To be noted: recombinant enzyme, APMA activation, pH 7.5 or pH 6.5, fluorimeter.

For assay [3], the target named is T3, TNFα-converting enzyme (TACE) (Homo sapiens, UniProt P78536).
T3 construct: purchased R&D Systems
T3 sequence (P78536 215-824): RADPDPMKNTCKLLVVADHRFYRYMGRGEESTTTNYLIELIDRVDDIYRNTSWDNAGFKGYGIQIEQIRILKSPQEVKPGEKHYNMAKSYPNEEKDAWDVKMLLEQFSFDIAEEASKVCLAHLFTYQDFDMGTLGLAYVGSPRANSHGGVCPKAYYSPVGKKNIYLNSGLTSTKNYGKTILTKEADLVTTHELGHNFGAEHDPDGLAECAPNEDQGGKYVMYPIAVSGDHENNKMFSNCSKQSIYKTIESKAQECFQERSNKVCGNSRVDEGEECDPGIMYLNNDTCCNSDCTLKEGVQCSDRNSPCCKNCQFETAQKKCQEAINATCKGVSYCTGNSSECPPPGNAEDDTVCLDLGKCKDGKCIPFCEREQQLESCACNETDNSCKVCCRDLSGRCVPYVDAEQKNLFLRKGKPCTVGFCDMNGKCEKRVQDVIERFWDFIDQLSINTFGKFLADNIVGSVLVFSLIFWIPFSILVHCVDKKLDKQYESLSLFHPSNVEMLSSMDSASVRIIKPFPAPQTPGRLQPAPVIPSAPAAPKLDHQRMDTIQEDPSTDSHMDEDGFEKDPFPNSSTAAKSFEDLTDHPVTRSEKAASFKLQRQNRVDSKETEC
Put plainly: Inhibition of TACE activity (fluorimetric peptide substrate cleavage). Format: biochemical. The protocol: The activity of the cyclic urea derivatives of the invention was tested in various in vitro assay systems for inhibitory activity on the proteases ADAMTS-4 and TNFα-converting enzyme (TACE) and on matrix-degrading metalloproteases (MMP13).
The activity in relation to TACE was measured using a commercially available, recombinantly prepared TACE protease (R&D Systems) and the substrate MCA-ProLeuAlaGlnAlaVal-Dpa-ArgSerSerSerArg-NH2 (Bachem).

Assay [4] concerns primary bovine chondrocytes. Put plainly: Inhibition of proteoglycan liberation from IL1α-stimulated primary bovine chondrocyte cultures. Type of assay: cell-based. To be noted: Bos taurus, alginate culture, 5 ng/ml human IL1α, 16 hours, dimethylmethylene blue dye test. The protocol:
The proteoglycan degradation was determined using primary bovine chondrocytes which were isolated from the cartilage of the metacarpophalangeal joint of cattle about 6 months old and cultured in an alginate matrix at 37° C. and 5% CO2 for 3 weeks. Stimulation of ˜160 000 cells with 5 ng/ml human IL1α was followed after 16 hours by determination of the liberated amount of proteoglycan by means of a commercially available dimethylmethylene blue dye test system (Biocolor Ltd.).

Where [5] appears, read: recombinant TACE (R&D Systems), MCA peptide substrate, fluorimeter, read-out: Inhibition of TACE activity (IC50).

As a reminder, the IC50 is the concentration that gives 50% inhibition. In the case of “2-(3-Biphenyl-4-ylmethyl-2-oxoimidazolidin-1-yl)-N-hydroxy-3-methylbutyramide [Example 6]”, the IC50 in assay [1] worked out at 9.06 µM.

Consider `CC(C)C(C(=O)NO)N1CCN(Cc2ccc(OCc3ccccc3)cc2)C1=O` (stereo not drawn) [Example 1, 2-(3-(4-Benzyloxybenzyl)-2-oxoimidazolidin-1-yl)-N-hydroxy-3-methylbutyramide], for which the IC50 was 2.1 µM in assay [1], 5 µM in assay [2], 2.47 µM in assay [3] (setting [5]) and above 50 µM in assay [4].

`CC(C)C(C(=O)NO)N1CCN(c2ccc(OCc3ccccc3)cc2)C1=O` (stereo not drawn) [Example 2, 2-(3-(4-Benzyloxyphenyl)-2-oxoimidazolidin-1-yl)-N-hydroxy-3-methylbutyramide]: the IC50 in assay [1] came to 55 µM.

On to `CC(C)C(C(=O)NO)N1CCN(Cc2cccc(OCc3ccccc3)c2)C1=O` (stereo not drawn) [Example 3, 2-(3-(3-Benzyloxybenzyl)-2-oxoimidazolidin-1-yl)-N-hydroxy-3-methylbutyramide], for which the IC50 in assay [3] (setting [5]) turned out to be 2 µM.

Turning to `CC(C)C(C(=O)NO)N1CCN(Cc2ccc(Oc3ccccc3)cc2)C1=O` (stereo not drawn) [Example 4, N-Hydroxy-3-methyl-2-(2-oxo-3-(4-phenoxybenzyl)imidazolidin-1-yl)-butyramide], the IC50 in assay [1] worked out at 1.33 µM; in assay [2], 0.08 µM; in assay [3] (setting [5]) it was 5 µM.

As for `CC(C)C(C(=O)NO)N1CCN(Cc2ccc(OCc3ccccc3)nc2)C1=O` (stereo not drawn) [Example 5, 2-(3-(6-Benzyloxypyridin-3-ylmethyl)-2-oxoimidazolidin-1-yl)-N-hydroxy-3-methylbutyramide], the IC50 in assay [1] was 10 µM.

For the compound `COc1ccc(C2CN(Cc3ccccc3)C(=O)N2C(C(=O)NO)C(C)C)cc1` (stereo not drawn) [Example 7, 2-(3-Benzyl-5-(4-methoxyphenyl)-2-oxoimidazolidin-1-yl)-N-hydroxy-3-methylbutyramide], the IC50 in assay [2] was found to be 0.01 µM; in assay [3], 9 µM.

`CC(C)C(C(=O)NO)N1CCN(Cc2cccc(O)c2)C1=O` (stereo not drawn) [Example 9, N-Hydroxy-2-(3-(3-hydroxybenzyl)-2-oxoimidazolidin-1-yl)-3-methylbutyramide]: the IC50 in assay [1] came out at 72.4 µM; in assay [3] (setting [5]) it was 3.04 µM.

`CC(C)C(C(=O)NO)N1CCN(Cc2ccc(OCc3ccncc3)cc2)C1=O` (stereo not drawn) [Example 10, N-Hydroxy-3-methyl-2-{2-oxo-3-(4-(pyridin-4-ylmethoxy)benzyl)imidazolidin-1-yl}-butyramide; compound with TFA]: the IC50 in assay [1] was 0.9 µM; in assay [2], 4 µM; in assay [3], 1.14 µM; in assay [4] it was above 50 µM.

`CC(C)C(C(=O)NO)N1CCN(Cc2ccc(OCc3cccnc3)cc2)C1=O` (stereo not drawn) [Example 11, N-Hydroxy-3-methyl-2-[2-oxo-3-(4-(pyridin-3-ylmethoxy)benzyl)imidazolidin-1-yl]-butyramide with TFA]: the IC50 in assay [1] was found to be 7.8 µM; in assay [2] it was 5.4 µM; in assay [3] (setting [5]), 3 µM.

Regarding `CC(C)C(C(=O)NO)N1CCN(Cc2ccc(OCc3ccccn3)cc2)C1=O` (stereo not drawn) [Example 12, N-Hydroxy-3-methyl-2-{2-oxo-3-(4-(pyridin-2-ylmethoxy)benzyl)imidazolidin-1-yl}butyramide with TFA], the IC50 in assay [1] was found to be 7 µM; in assay [3] (setting [5]) it was 8 µM.

On to `CC#CCOc1ccc(CN2CCN(C(C(=O)NO)C(C)C)C2=O)cc1` (stereo not drawn) [Example 13, 2-(3-(4-But-2-ynyloxybenzyl)-2-oxoimidazolidin-1-yl)-N-hydroxy-3-methylbutyramide], for which the 50% inhibitory concentration (IC50) in assay [3] (setting [5]) stood at 5 µM.

Turning to `Cc1cc(COc2ccc(CN3CCN(C(C(=O)NO)C(C)C)C3=O)cc2)c2ccccc2n1` (stereo not drawn) [Example 14, N-Hydroxy-3-methyl-2-{3-(4-(2-methylquinolin-4-ylmethoxy)benzyl)-2-oxoimidazolidin-1-yl}butyramide with TFA], the half-inhibitory concentration (IC50) in assay [1] is 1.14 µM; in assay [3] (setting [5]), 0.01 µM; in assay [4], 12.9 µM.

As for `COc1ccc(CC2CN(Cc3ccccc3)C(=O)N2C(C(=O)NO)C(C)C)cc1` (stereo not drawn) [Example 15, 2-(3-Benzyl-5-(4-methoxybenzyl)-2-oxoimidazolidin-1-yl)-N-hydroxy-3-methylbutyramide], the IC50 in assay [1] was 17 µM; in assay [2] it was 0.4 µM; in assay [3] (setting [5]) it was 8 µM.

For the compound `COc1ccc(CC2CN(Cc3ccc(OCc4ccccc4)cc3)C(=O)N2C(C(=O)NO)C(C)C)cc1` (stereo not drawn) [Example 16, 2-(3-(4-Benzyloxybenzyl)-5-(4-methoxybenzyl)-2-oxoimidazolidin-1-yl)-N-hydroxy-3-methylbutyramide], the IC50 in assay [1] came to 1.39 µM; in assay [2], 0.42 µM; in assay [3] (setting [5]), 3.08 µM; in assay [4], 25.5 µM.

`COc1ccc(CC2CN(C)C(=O)N2C(C(=O)NO)C(C)C)cc1` (stereo not drawn) [Example 17, N-Hydroxy-2-(5-(4-methoxybenzyl)-3-methyl-2-oxoimidazolidin-1-yl)-3-methylbutyramide]: the IC50 in assay [2] was 3.17 µM.

For `CC(C)C(C(=O)NO)N1C(=O)N(Cc2ccc(OCc3ccccc3)cc2)CC1Cc1ccc2c(c1)OCO2` (stereo not drawn) [Example 18, 2-(5-Benzo(1,3)dioxol-5-ylmethyl-3-(4-benzyloxybenzyl)-2-oxoimidazolidin-1-yl)-N-hydroxy-3-methylbutyramide], the figures for the IC50 in assay [1], in assay [2] and in assay [3] (setting [5]) were 3.16 µM, 0.6 µM and 1.9 µM, respectively.

`CC(C)C(C(=O)NO)N1C(=O)N(Cc2ccccc2)CC1Cc1ccc2c(c1)OCO2` (stereo not drawn) [Example 19, 2-(5-Benzo(1,3)dioxol-5-ylmethyl-3-benzyl-2-oxoimidazolidin-1-yl)-N-hydroxy-3-methylbutyramide]: the figures for the IC50 in assay [2] and in assay [3] (setting [5]) were 0.34 µM and 9.29 µM, respectively.

Turning to `COc1ccc(CC2CN(Cc3ccc(OCc4ccccc4)cc3)S(=O)(=O)N2C(C(=O)NO)C(C)C)cc1` (stereo not drawn) [Example 20, 2-(5-(4-Benzyloxybenzyl)-3-(4-methoxybenzyl)-1,1-dioxo-(1,2,5)thiadiazolidin-2-yl)-N-hydroxy-3-methylbutyramide], the IC50 in assay [2] turned out to be 3.58 µM.
